# Source: patent US20030077298A1, “Activators and ligands of PPAR-beta/delta for the treatment of skin conditions” (The Regents of the University of California, a California …, priority 2001, published 2003)
# Read-outs that look alike come from different tables or passages of the source.
# How the values were obtained:
# [1] = test system: cultured human keratinocytes; test: Keratinocyte differentiation in vitro, mRNA levels by Northern blot; assay type: cell-based
# Protocol: Therefore, to determine if GW1514 could stimulate keratinocyte differentiation, in vitro changes in the levels involucrin and transglutaminase I mRNA, and involucrin protein expression were determined when cells were cultured in the presence of GW1514. In addition, levels of PPAR-betaldelta mRNA were compared in cells treated with GW1514 versus untreated controls.
# (§1) Second-passage keratinocytes isolated from newborn foreskins were cultured in serum-free keratinocyte growth medium (KGM; Clonetics, San Diego, Calif., USA). […] Poly-A mRNA was isolated and transglutaminase I, involucrin and PPAR-beta/delta mRNA levels were measured by Northern blot analysis (FIG. 1).
# (§2) PolyA RNA was purified using oligo(dT) cellulose (Amersham Pharmacia). RNA was electrophoresed through 1% agarose gels containing 2.2 M formaldehyde, and RNA integrity was visualized by ethidium bromide staining. The RNA was then transferred to a nylon membrane and blots were hybridized overnight at 65° C. with the appropriate ^32P-labeled cDNA probes. Probes were ^32P-labeled by random priming. Washes were performed in 0.1% SSC and 0.1 SDS for 20 minutes at room temperature and at 65° C., respectively. Autoradiography was performed at −70° C. Blots were probed with GAPDH to control for normal loading. Bands of the correct size were quantified by densitometry using QuantityOne software (Bio-Rad Laboratories Inc., Hercules, Calif., USA).
# [2] = test system: cultured human keratinocytes; test: Keratinocyte differentiation in vitro, involucrin protein by Western blot; assay type: cell-based; details: 8 μM
# Protocol: as §1
# Total cellular protein was isolated from cultured keratinocytes and involucrin protein levels were assessed by Western blot analysis. The cells were homogenized by sonication, their protein content was determined, and gels were loaded with equal amounts per sample and lane. Western Immunoblotting was performed using 7.5% SDS-PAGE, as described previously (Laemmli, 1970). Following transfer of protein to PVDF membranes, blots were incubated overnight with primary antibody at 4° C. Secondary antibody (peroxidase conjugated anti mouse; Amersham PharmaciaBiotech Inc., Piscataway, N.J.) was applied and blots were incubated at room temperature for 2 hours. Final detection was performed by chemiluminescence (ECL kit; Amersham). Involucrin protein was detected with a monoclonal mouse anti-human involucrin antibody.
# [3] = test system: normal epidermis of hairless mice; test: Topical treatment of normal epidermis: filaggrin/loricrin immunohistochemistry and PCNA staining; assay type: in vivo, mouse
# Excerpt: At the conclusion of the experiment the animals were sacrificed. Mouse skin samples were fixed with 4% formaldehyde in phosphate-buffered saline (PBS) and embedded in paraffin. Sections (6 μm) were collected on microscope slides and used for immunohistochemistry. Photographs were taken with a Zeiss microscope and digital images were captured and assembled by appropriate software. Fillagrin and loricrin protein expression were detected by immunohistochemistry using antibodies purchased from BabCo (Richmond, Calif.). Proliferating keratinocytes were quantified in sections by staining with biotinylated anti-proliferating cell nuclear antigen (PCNA) antibody (CalTag Laboratories, Burlingame, Calif.).
# [4] = test system: epidermis of PPARα−/− and PPARα+/+ mice; test: Topical treatment of PPAR-alpha knockout and wild type mice: filaggrin/loricrin immunohistochemistry; assay type: in vivo, mouse; details: 4 mM topical twice a day for 6 days
# Protocol: The epidermis of PPARα knockout (PPARα−/−) mice, as well as the epidermis of wild type(PPARα+/+) mice was treated with topical applications of GW1514. Expression of the in vivo differentiation markers loricrin and filaggrin was measured by immunohistochemical staining following treatment.
# PPAR-alpha−/−mice in a mixed C57BL/6 and Sv129 background were compared with age matched C57BL/6 and Sv129 wild type controls. […] At the conclusion of the experiment, animals were sacrificed. Skin samples were taken and fixed with 4% formaldehyde in phosphate-buffered saline (PBS) and embedded in paraffin. Sections (6 μm) were collected on microscope slides and used for immunohistochemistry. Photographs were taken with a Zeiss microscope and digital images were captured and assembled by appropriate software. Fillagrin and loricrin protein expression were detected by immunohistochemistry using antibodies purchased from BabCo (Richmond, Calif.).
# [5] = test system: epidermal permeability barrier of hairless mice; test: Permeability barrier recovery (TEWL) after barrier disruption; assay type: in vivo, mouse; details: for percent barrier recovery: pretreated 4 mM twice daily for three days
# Protocol: Permeability of the epidermal barrier was then experimentally disrupted by the repeated application of cellophane tape, solvent extraction (repeated topical acetone), or by detergent treatment (repeated topical sodium dodecyl sulfate) until the transepidermal water loss (TEWL) reached 6-8 mg/cm^2/h. Recovery of barrier function was determined by measurement of transepidermal water loss (TEWL) with an electrolytic water analyzer (MEECO®, Warrington, Pa.) at 3 and 6 hours after barrier disruption.
# Barrier recovery is reported as percent barrier recovery from the initial induced defect.
# [6] = test system: hyperplastic epidermis of hairless mice; test: Experimentally induced epidermal hyperplasia: filaggrin/loricrin and PCNA staining; assay type: in vivo, mouse; details: 4 mM in acetone topically for three days after induction of hyperplasia
# Protocol: The skin of 6-8 week old hairless mice (Simonsen Laboratories, Gilroy, Calif.) was treated twice a day for 3 days with acetone soaked cotton balls until the transepidermal water loss reached 6-8 mg/cm^2/h. […] At the completion of the experimental treatments, the animals were sacrificed and skin samples were taken and fixed with 4% formaldehyde in phosphate-buffered saline (PBS) and embedded in paraffin. Sections (6 μm) were collected on microscope slides and used for immunohistochemistry. Photographs were taken with a Zeiss microscope and digital images were captured and assembled by appropriate software. Fillagrin and loricrin protein expression were detected by immunohistochemistry using antibodies purchased from BabCo (Richmond, Calif.). Proliferating keratinocytes were quantified in sections by staining with biotinylated anti-proliferating cell nuclear antigen (PCNA) antibody (CalTag Laboratories, Burlingame, Calif.).
# ears of CD-1 mice = test: TPA-induced irritant contact dermatitis, ear thickness; assay type: in vivo, mouse; details: for effect on TPA induced increase in ear thickness: GW1514 4 mM in acetone, topical, 45 minutes and 4 hours after TPA, FIG. 9
# Protocol: TPA was applied to the inner and outer surface of the left ears of male mice. The right ears were treated with vehicle alone (acetone). […] Ear thickness was measured with a digital caliper (Mitutoyo Corp., Tokyo, Japan).
# PPAR-alpha [7] = biological target: T1, PPAR-alpha (Homo sapiens, UniProt Q07869); test: PPAR subtype activation (statement in description); details: "it has now been discovered"; no method given
# T1 sequence (Q07869 1-468): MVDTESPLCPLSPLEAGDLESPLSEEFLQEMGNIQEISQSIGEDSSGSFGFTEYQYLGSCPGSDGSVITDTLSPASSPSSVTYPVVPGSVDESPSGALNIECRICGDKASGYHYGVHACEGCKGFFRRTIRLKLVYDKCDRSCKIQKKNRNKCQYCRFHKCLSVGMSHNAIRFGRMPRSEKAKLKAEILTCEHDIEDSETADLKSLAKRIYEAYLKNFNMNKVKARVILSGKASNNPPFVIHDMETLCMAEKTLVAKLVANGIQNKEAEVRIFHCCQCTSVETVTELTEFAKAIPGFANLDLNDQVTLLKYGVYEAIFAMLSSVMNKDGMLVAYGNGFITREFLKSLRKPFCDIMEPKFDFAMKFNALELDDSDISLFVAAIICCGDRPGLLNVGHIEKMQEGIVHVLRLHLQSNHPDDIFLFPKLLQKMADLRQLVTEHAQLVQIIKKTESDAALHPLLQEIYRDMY
# [8] = test system: cultured human keratinocytes; test: PPAR-beta/delta mRNA in keratinocytes treated with inflammatory stimuli (Northern blot); assay type: cell-based; details: LPS; IL1-beta 50 ng/ml; TNF-alpha 100 ng/ml; UV-B 30 mJ/cm^2
# Protocol: Second-passage keratinocytes isolated from newborn foreskins were cultured in serum-free keratinocyte growth medium (KGM; Clonetics, San Diego, Calif., USA). […] Control keratinocytes were treated with vehicle (0.05%) ethanol, or sham irradiated. UV exposure was performed in phosphate buffered saline which was replaced by serum free KGM after irradiation. For cytokine treatment, 0.1% bovine serum albumin was added to the medium.
# as §2, with “Quantityone” for “QuantityOne”, “Laboratories,” for “Laboratories”
# PPAR-alpha [9] = biological target: T1, PPAR-alpha; details: known cross-reactive PPAR agonists; cited from earlier work
# [10] = 8 μM vs vehicle (0.05% ethanol), Northern blot
# [11] = 4 mM in acetone, topical, twice a day for 6 days, vs vehicle
molecule,measurement,setting,value
"Cc1cc(SCc2oc(-c3ccc(C(F)(F)F)cc3)nc2C)ccc1OCC(=O)O [GW1514, (2-methyl-4-(((4-methyl-2-(4-trifluoromethylphenyl)-1,3-oxazol-5-yl)methyl)sulfanyl)phenoxy)acetic acid]",PPAR-beta/delta mRNA levels,[1]; [10],increased levels
same,involucrin mRNA levels,[1]; [10],increased levels
same,transglutaminase I mRNA levels,[1]; [10],increased levels
same,induction of differentiation markers compared with high calcium concentrations in culture medium,"[1]; 8 μM, FIG. 1",more pronounced
same,increase in involucrin protein expression,[2],5 fold
same,filaggrin immunohistochemical staining,[3]; [11],increased levels of immunohistochemical staining
same,loricrin immunohistochemical staining,[3]; [11],increased levels of immunohistochemical staining
same,cell proliferation (PCNA),[3]; after six days treatment,at normal levels
same,expression of in vivo differentiation markers,[3]; after three days of treatment,increased expression
same,pool of proliferating cells (PCNA),[3]; three days after treatment,transiently increased
same,filaggrin immunohistochemical staining,[4]; PPAR-alpha knockout (−/−) mice,increased immunohistochemical staining
same,loricrin immunohistochemical staining,[4]; PPAR-alpha knockout (−/−) mice,increased immunohistochemical staining
same,filaggrin immunohistochemical staining,[4]; wild type (+/+) mice,increased immunohistochemical staining
same,loricrin immunohistochemical staining,[4]; wild type (+/+) mice,increased immunohistochemical staining
same,recovery of permeability barrier function,"[5]; regardless of the method of barrier perturbation (tape, acetone, detergent)",accelerated recovery
same,percent barrier recovery,[5]; three hour post tape-strip,~50%
same,percent barrier recovery,[5]; three hours after repeated topical acetone,about 30%
same,expression of differentiation marker filaggrin,[6],increase
same,expression of differentiation marker loricrin,[6],increase
same,number of proliferating nuclei as measured by PCNA staining,[6],did not produce an increase
same,effect on TPA induced increase in ear thickness,ears of CD-1 mice,reduced the magnitude
same,activation of PPAR-alpha,PPAR-alpha [7],not also activators of PPAR-alpha
C[C@H]1C[C@H]2[C@@H]3CCC4=CC(=O)C=C[C@]4(C)[C@@]3(F)[C@@H](O)C[C@]2(C)[C@@]1(O)C(=O)CCl [clobetasol],effect on TPA induced increase in ear thickness,ears of CD-1 mice,anti-inflammatory effect
lipopolysaccharide [reference compound],PPAR-beta/delta mRNA levels relative to untreated control,[8],nearly twice
"CCCCCCCCCCCCCC(=O)O[C@@H]1[C@@H](C)[C@@]2(O)[C@@H](C=C(CO)C[C@]3(O)C(=O)C(C)=C[C@@H]23)[C@@H]2C(C)(C)[C@]12OC(C)=O [TPA, 12-O-tetradecanoylphorbol-13-acetate]",increase in ear thickness following TPA treatment,"ears of CD-1 mice; 10 μl of 0.03% TPA in acetone, single topical application",approximately 2 fold
same,increase in ear weight following TPA treatment,"ears of CD-1 mice; 10 μl of 0.03% TPA in acetone, single topical application, not shown",approximately 2 fold
Cc1cccc(Nc2cc(Cl)nc(SCC(=O)O)n2)c1C [WY 14643],activation of PPAR-alpha,PPAR-alpha [9],activates
IL1-β: cytokine used as inflammatory stimulus on cultured keratinocytes,PPAR-beta/delta mRNA levels relative to untreated control,[8],nearly twice
